Reference: PubChem BioAssay AID1996
≈ marks a conversion by molar mass, not a printed value.

settings: buffer; pH 7.4; 200.0 µM

Question: Which solubility kinetic does the source give for `COc1ccc(C(=O)COC(=O)c2cccnc2SC)cc1` here?
Answer: < 0.7 µg/mL

Question: For `CCC1CN(C(=O)NCc2ccccc2)c2cc(C)ccc2O1` (stereo unspecified), which solubility kinetic is on record?
Answer: 3.8 µg/mL (≈ 12.2 µM)

Question: With `CCOC(=O)c1cc(C)[nH]c1C` as the compound, how does the solubility kinetic read?
Answer: 24.7 µg/mL (≈ 148 µM)

Question: For `COc1ccccc1NC1=NC(CO)(CO)CS1`, which solubility kinetic is on record?
Answer: > 40.2 µg/mL

Question: Which solubility kinetic does the source give for `CN1CCN(S(=O)(=O)c2ccc(Cl)s2)CC1` here?
Answer: > 42.1 µg/mL

Question: For `Cc1ccc2nc(-c3ccc(-c4ccccn4)s3)cn2c1`, which solubility kinetic is on record?
Answer: 3.2 µg/mL (≈ 11 µM)

Question: For `CC1(C)OC(=O)C(=NNc2ccc(C(=O)O)cc2)C(=O)O1`, which solubility kinetic is on record?
Answer: > 43.8 µg/mL

Question: For `CCOc1ccc(OCCSc2nc(N)cc(=O)[nH]2)cc1`, which solubility kinetic is on record?
Answer: 4.1 µg/mL (≈ 13.3 µM)

Question: For `CCc1ccccc1NC(=O)CCN1C(=O)C2C3CCC(C3)C2C1=O` (stereo unspecified), which solubility kinetic is on record?
Answer: 43 µg/mL (≈ 126 µM)

Question: With `O=C(NCCc1ccccc1F)C1CC(=O)N(c2ccccc2)C1` (stereo unspecified) as the compound, how does the solubility kinetic read?
Answer: 47.8 µg/mL (≈ 146 µM)

Question: With `N#Cc1cccc(C(=O)Nc2cc(S(=O)(=O)N3CCOCC3)ccc2N2CCCC2)c1` as the compound, how does the solubility kinetic read?
Answer: > 66.1 µg/mL

Question: For `Cc1nc(Oc2ccccc2)c2ccsc2n1`, which solubility kinetic is on record?
Answer: 20 µg/mL (≈ 82.5 µM)

Question: With `O=C(NCCO)N1c2ccccc2Sc2ccccc21` as the compound, how does the solubility kinetic read?
Answer: > 43 µg/mL

Question: With `Cc1ccc(C(C)NC(=O)c2cccnc2)cc1` (stereo unspecified) as the compound, how does the solubility kinetic read?
Answer: 33.5 µg/mL (≈ 139 µM)

Question: For `CC(=O)N1CCN(c2ccc(NC(=O)c3ccccc3)cc2)CC1`, which solubility kinetic is on record?
Answer: 40.5 µg/mL (≈ 125 µM)

Question: For `COc1ccccc1NC(=S)NCc1ccccc1Cl`, which solubility kinetic is on record?
Answer: 1.3 µg/mL (≈ 4.24 µM)

Question: Which solubility kinetic does the source give for `O=C(/C=C/c1ccccc1[N+](=O)[O-])OC1CCCCC1=O` (stereo unspecified) here?
Answer: 4.5 µg/mL (≈ 15.6 µM)

Question: Which solubility kinetic does the source give for `CS(=O)(=O)Nc1cccc(-c2cnc3ccccc3n2)c1` here?
Answer: > 44.9 µg/mL

Question: Which solubility kinetic does the source give for `CC(C)Nc1nc2cccnc2s1` here?
Answer: > 29 µg/mL

Question: With `Cc1cccnc1NC(=O)CNC(=O)C1CCCCC1` as the compound, how does the solubility kinetic read?
Answer: > 41.3 µg/mL

Question: Which solubility kinetic does the source give for `CCOC(=O)COc1ccc2c(c1)c(C(C)=O)c(C)n2Cc1ccccc1` here?
Answer: 6.9 µg/mL (≈ 18.9 µM)

Question: With `CN(CC(O)CN1CCOCC1)S(=O)(=O)[O-].[Na+]` (stereo unspecified) as the compound, how does the solubility kinetic read?
Answer: > 41.4 µg/mL

Question: For `O=C1OCCN/C1=C\C(=O)c1ccc(Cl)cc1`, which solubility kinetic is on record?
Answer: > 37.8 µg/mL

Question: Which solubility kinetic does the source give for `Cc1cccc(C)c1NC(=O)CN(C)C(=O)C1CCCCC1` here?
Answer: > 45.4 µg/mL

Question: For `O=C(COC(=O)c1ccc2c(c1)OCO2)NC1CCCCC1`, which solubility kinetic is on record?
Answer: 18.4 µg/mL (≈ 60.3 µM)

Question: With `CC(C)CNC(=O)CCc1nc(-c2ccccc2)no1` as the compound, how does the solubility kinetic read?
Answer: 37.7 µg/mL (≈ 138 µM)

Question: With `COc1ccccc1/C=C/C(=O)N1CCc2cc(OC)c(OC)cc2C1C` (stereo unspecified) as the compound, how does the solubility kinetic read?
Answer: 33 µg/mL (≈ 89.8 µM)

Question: For `Cl.O=C(NCC(c1ccc(F)cc1)N1CCOCC1)c1ccc([N+](=O)[O-])o1` (stereo unspecified), which solubility kinetic is on record?
Answer: > 60 µg/mL

Question: Which solubility kinetic does the source give for `Cc1ccc(N2C(=O)C3C4C=CC(CC4)C3C2=O)cc1[N+](=O)[O-]` (stereo unspecified) here?
Answer: 23.4 µg/mL (≈ 74.9 µM)

Question: With `COc1ccc(S(=O)(=O)N2CCN(Cc3cccs3)CC2)cc1OC` as the compound, how does the solubility kinetic read?
Answer: 55.7 µg/mL (≈ 146 µM)

Question: Which solubility kinetic does the source give for `O=C(/C=C/Nc1ccccc1O)c1ccco1` here?
Answer: 5.5 µg/mL (≈ 24 µM)

Question: With `Nc1nnc(SCC(=O)Nc2cccnc2Cl)s1` as the compound, how does the solubility kinetic read?
Answer: > 45.3 µg/mL

Question: Which solubility kinetic does the source give for `COc1ccc(C)cc1Nc1nc(N)c2cc(OC)c(OC)cc2n1` here?
Answer: 40.1 µg/mL (≈ 118 µM)

Question: Which solubility kinetic does the source give for `O=C(c1cccc([N+](=O)[O-])c1)N1CC2C3C=CC(C3)C2C1` (stereo unspecified) here?
Answer: > 42.6 µg/mL

Question: With `c1cncc(-c2nc3ccccc3s2)c1` as the compound, how does the solubility kinetic read?
Answer: 22.7 µg/mL (≈ 107 µM)

Question: For `COc1ccccc1CNC(=O)CN1C(=O)NC2(CCC(C)CC2)C1=O` (stereo unspecified), which solubility kinetic is on record?
Answer: > 53.9 µg/mL

Question: With `CCOC(=O)C1CCN(C(=O)COC(=O)CNC(=O)c2ccc(C(C)(C)C)cc2)CC1` as the compound, how does the solubility kinetic read?
Answer: > 64.9 µg/mL

Question: With `COc1ccc(C(=O)Nc2ccc(Nc3ccccc3)cc2)cc1OC` as the compound, how does the solubility kinetic read?
Answer: < 0.4 µg/mL

Question: For `CCCc1c(C)nc(N2CCN(c3ccccc3F)CC2)[nH]c1=O`, which solubility kinetic is on record?
Answer: 0.4 µg/mL (≈ 1.21 µM)

Question: For `CSc1ncccc1C(=O)OCC(=O)N(C)C`, which solubility kinetic is on record?
Answer: > 38.1 µg/mL

Question: For `Cn1cc(C(=O)OCC(=O)N2CCCCC2)c2ccccc21`, which solubility kinetic is on record?
Answer: > 45.1 µg/mL

Question: For `CC(=O)c1cc(CCC(=O)NC2CCCCCC2)oc1C`, which solubility kinetic is on record?
Answer: > 43.7 µg/mL

Question: Which solubility kinetic does the source give for `COc1ccc2c(c1)C(=O)N(c1ccc(C)cc1C)C(=O)C2(C)C` here?
Answer: 5.3 µg/mL (≈ 16.4 µM)

Question: Which solubility kinetic does the source give for `C[C@]12CS(=O)(=O)C[C@H]1SC(=S)N2c1ccccc1` here?
Answer: > 44.9 µg/mL

Question: Which solubility kinetic does the source give for `COc1cccc(NC(=O)C(=O)NCCCn2ccnc2)c1` here?
Answer: 42.2 µg/mL (≈ 140 µM)

Question: With `O=C1COc2ccc(S(=O)(=O)N3CCCC3)cc2N1` as the compound, how does the solubility kinetic read?
Answer: > 42.3 µg/mL

Question: With `CCn1c2ccccc2c2cc(CC(N)=O)ccc21` as the compound, how does the solubility kinetic read?
Answer: 8 µg/mL (≈ 31.7 µM)

Question: Which solubility kinetic does the source give for `C[C@@H]1CN(Cc2nc(-c3cnccn3)no2)C[C@H](C)O1` here?
Answer: 30.8 µg/mL (≈ 112 µM)

Question: For `COC(=O)c1ccccc1-n1c(C)nc(=O)c(-c2ccccc2)c1C`, which solubility kinetic is on record?
Answer: > 50.2 µg/mL

Question: Which solubility kinetic does the source give for `O=C(NCCCCc1ccccc1)c1cccc([N+](=O)[O-])c1` here?
Answer: 8.5 µg/mL (≈ 28.5 µM)

Question: Which solubility kinetic does the source give for `O=C1CCCCCCCCCC/C(=N\O)CCCO1` here?
Answer: 9.8 µg/mL (≈ 36.4 µM)

Question: Which solubility kinetic does the source give for `O=C(Nc1cccc(OC(=O)N2CCCCC2)c1)N1CCOCC1` here?
Answer: > 50 µg/mL

Question: With `Cc1cc(C)nc(N/N=C/c2sccc2C)n1` as the compound, how does the solubility kinetic read?
Answer: > 36.9 µg/mL

Question: Which solubility kinetic does the source give for `CC(C)c1ccc(N)c(S(=O)(=O)O)c1` here?
Answer: > 32.3 µg/mL

Question: Which solubility kinetic does the source give for `Fc1ccccc1CN1CCN(c2ncccn2)CC1` here?
Answer: 30.1 µg/mL (≈ 111 µM)

Question: For `CC(C)CC(NC(N)=O)C(=O)Nc1ccc2c(c1)OCO2` (stereo unspecified), which solubility kinetic is on record?
Answer: > 44 µg/mL

Question: For `COc1ccc2nc3oc(C(=O)NCCCOC(C)C)cc3cc2c1`, which solubility kinetic is on record?
Answer: 12 µg/mL (≈ 35 µM)

Question: Which solubility kinetic does the source give for `CCCCn1c(O)c(C=NCc2ccc3c(c2)OCO3)c(=O)[nH]c1=O` here?
Answer: 6.8 µg/mL (≈ 19.7 µM)

Question: For `COc1cccc(C2=NOC(C(=O)NCc3cccnc3)C2)c1` (stereo unspecified), which solubility kinetic is on record?
Answer: > 46.7 µg/mL

Question: Which solubility kinetic does the source give for `O=C(Nc1cccc(F)c1)C1CCN(C(=O)c2ccco2)CC1` here?
Answer: 44.4 µg/mL (≈ 140 µM)

Question: Which solubility kinetic does the source give for `CN1c2ccccc2C(=O)NC1c1ccc(Cl)cc1` (stereo unspecified) here?
Answer: > 40.9 µg/mL
